Measured values reported in ChEMBL document CHEMBL4261528, “Synthesis, molecular modeling and biological evaluation of aza-flavanones as α-glucosidase inhibitors” (Medchemcomm, 2017).

Experiment: Inhibition of baker's yeast alpha-glucosidase preincubated for 15 to 20 mins followed by p-nitrophenyl-alpha-D-glucopyranoside substrate addition measured after 45 to 60 mins by spectrophotometric method
Design: species or system Saccharomyces cerevisiae
Settings: not given

IC50	Structure (SMILES)
Nd(Insoluble)	O=C1CC(c2ccc(Br)cc2)Nc2ccccc21 (configuration not stated)

Same assay, conditions: read-out: IC50

Structure (SMILES)	IC50 [µM]
O=C1CC(C2CC2)Nc2ccccc21 (configuration not stated)	284
C[C@H]1O[C@H](O[C@H]2[C@H](O)[C@@H](O)[C@@H](O[C@H]3[C@H](O)[C@@H](O)C(O)O[C@@H]3CO)O[C@@H]2CO)[C@H](O)[C@@H](O)[C@@H]1N[C@H]1C=C(CO)[C@@H](O)[C@H](O)[C@H]1O (some centres not stated) [ACARBOSE]	360
O=C1CC(C2CCCO2)Nc2ccccc21 (configuration not stated)	667
CCCCC1CC(=O)c2ccc(F)cc2N1 (configuration not stated)	134
CCCCC1CC(=O)c2cc(OC)ccc2N1 (configuration not stated)	683
OCCN1C[C@H](O)[C@@H](O)[C@H](O)[C@H]1CO [MIGLITOL]	462
O=C1CC(C2CCCCC2)Nc2ccccc21 (configuration not stated)	494
OCC(CO)N[C@H]1C[C@](O)(CO)[C@@H](O)[C@H](O)[C@H]1O [VOGLIBOSE]	325
O=C1CC(C2CCOC2)Nc2ccccc21 (configuration not stated)	867

Results, then the compound that gave them:

IC50 [µM]	Structure (SMILES)
272	CCC1CC(=O)c2ccccc2N1 (configuration not stated)
606	Cc1ccc(C2CC(=O)c3ccccc3N2)cc1C (configuration not stated)
487	O=C1CC(c2ccco2)Nc2ccccc21 (configuration not stated)
72.4	O=C1CC(c2ccsc2)Nc2ccccc21 (configuration not stated)
190	CCCC1CC(=O)c2ccccc2N1 (configuration not stated)
773	O=C1CC(c2ccncc2)Nc2ccccc21 (configuration not stated)
382	O=C1CC(c2cccs2)Nc2ccccc21 (configuration not stated)
53.5	O=C1CC(c2ccc(C(F)(F)F)cc2)Nc2ccccc21 (configuration not stated)
686	O=C1CC(c2ccccc2)Nc2ccccc21 (configuration not stated) [Aza-flavanone]
352	O=C1CC(c2ccoc2)Nc2ccccc21 (configuration not stated)
211	O=C1CC(c2ccc(F)cc2F)Nc2ccccc21 (configuration not stated)
303	COc1ccc(C2CC(=O)c3ccccc3N2)cc1 (configuration not stated)
